Test results taken from patent publication US6495578B1, “Sulfonamide derivatives having oxadiazole rings” (Shionogi & Co., Ltd., priority 1999, dated 2002).

Target: T1, MMP-2 (Homo sapiens, UniProt P08253)
T1 construct: purchased Calbiochem-Novabiochem International, Inc
T1 sequence (P08253 110-660): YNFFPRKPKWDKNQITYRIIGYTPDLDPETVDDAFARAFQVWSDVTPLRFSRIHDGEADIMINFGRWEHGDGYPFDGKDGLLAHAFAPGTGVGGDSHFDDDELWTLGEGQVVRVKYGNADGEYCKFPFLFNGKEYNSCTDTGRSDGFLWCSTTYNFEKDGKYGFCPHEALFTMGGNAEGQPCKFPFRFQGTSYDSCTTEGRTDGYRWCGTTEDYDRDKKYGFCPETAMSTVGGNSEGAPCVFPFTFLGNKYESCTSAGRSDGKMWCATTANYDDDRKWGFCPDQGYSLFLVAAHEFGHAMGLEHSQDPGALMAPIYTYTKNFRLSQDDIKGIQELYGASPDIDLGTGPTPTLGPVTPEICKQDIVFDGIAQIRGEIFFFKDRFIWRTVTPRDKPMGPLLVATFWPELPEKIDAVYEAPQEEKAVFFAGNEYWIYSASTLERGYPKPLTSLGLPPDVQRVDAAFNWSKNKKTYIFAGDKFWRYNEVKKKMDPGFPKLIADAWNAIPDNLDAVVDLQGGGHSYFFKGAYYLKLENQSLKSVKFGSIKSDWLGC
Assay: Assay for inhibitory activities on MMP-2 (fluorogenic coumarin-labelled peptide substrate)
Type: biochemical
Conditions: MMP-2 purchased from Calbiochem-Novabiochem; substrate MOCAc-Pro-Leu-Gly-Leu-A2Pr(DNP)-Ala-Arg-NH2
Procedure: MMP-2 was purchased from Calbiochem-Novabiochem International, Inc.
The enzymatic activity on MMP-2 was analyzed by the method described in “C. Graham Knight, Frances Willenbrock and Gillian Murphy: A novel coumarin-labelled peptide for sensitive continuous assays of the matrix metalloproteinases: FEBS LETT., 296, (1992), 263-266”. The substrate: MOCAc-Pro-Leu-Gly-Leu-A2Pr(DNP)-Ala-Arg-NH2 was purchased from Peptide Institute, Inc., Osaka, Japan.
The measurement of the inhibitory activities (IC50) was carried out by the following four methods;
A) Reaction with substrate, enzyme (MMPs) and inhibitor
B) Reaction with substrate and inhibitor, without enzyme
C) Reaction with substrate and enzyme (MMPs), without inhibitor
D) Reaction with substrate only
IC50 values were calculated by using the following formula and each fluorescence values of above four methods (A to D).
IC50 means the concentration required to inhibit 50% of the enzyme activity.

| IC50 | SMILES |
| --- | --- |
| 6.68 nM | Cc1ccc(-c2nc(-c3ccc(S(=O)(=O)N[C@H](Cc4ccccc4)C(=O)O)cc3)no2)cc1 [Compound A-5] |
| 20.2 nM | O=C(O)[C@H](Cc1ccccc1)NS(=O)(=O)c1ccc(-c2noc(-c3ccc4c(c3)OCO4)n2)cc1 [Compound A-37] |
| 1.17 nM | CCCc1ccc(-c2nc(-c3ccc(S(=O)(=O)N[C@H](C)C(=O)O)cc3)no2)cc1 [Compound A-48] |
| 26.5 nM | O=C(O)[C@@H](Cc1ccccc1)NS(=O)(=O)c1ccc(-c2noc(-c3ccc(F)cc3)n2)cc1 [Compound A-7] |
| 14.3 nM | CC(C)c1ccc(-c2nc(-c3ccc(S(=O)(=O)NCC(=O)O)cc3)no2)cc1 [Compound A-60] |
| 6.04 nM | CCCCc1ccc(-c2nc(-c3ccc(S(=O)(=O)N[C@H](Cc4ccccc4)C(=O)O)cc3)no2)cc1 [Compound A-9] |
| 17.8 nM | CCc1ccc(-c2nc(-c3ccc(S(=O)(=O)N[C@H](Cc4ccccc4)C(=O)O)s3)no2)cc1 [Compound B-4] |
| 11.9 nM | CN(C)c1ccc(-c2nc(-c3ccc(S(=O)(=O)N[C@H](Cc4ccccc4)C(=O)O)cc3)no2)cc1 [Compound A-8] |
| 6.29 nM | Cc1ccc(-c2nc(-c3ccc(S(=O)(=O)N[C@H](C)C(=O)O)s3)no2)s1 [Compound B-10] |
| 126 nM | CCCc1ccc(-c2nc(-c3ccc(S(=O)(=O)N[C@@H](C)C(=O)O)cc3)no2)cc1 [Compound A-49] |
| 1.39 nM | CCc1ccc(-c2nc(-c3ccc(S(=O)(=O)N[C@H](Cc4c[nH]c5ccccc45)C(=O)O)cc3)no2)cc1 [Compound A-64] |
| 33.9 nM | Cc1ccc(-c2nc(-c3ccc(S(=O)(=O)NCC(=O)O)cc3)no2)s1 [Compound A-63] |
| 40.7 nM | CC(C)[C@@H](NS(=O)(=O)c1ccc(-c2noc(-c3cccs3)n2)cc1)C(=O)O [Compound A-22] |
| 85.2 nM | O=C(O)CNS(=O)(=O)c1ccc(-c2noc(-c3ccc(Cl)cc3)n2)cc1 [Compound A-13] |
| 47.4 nM | Cc1ccc(-c2nc(-c3ccc(S(=O)(=O)N[C@H](C(=O)O)C(C)C)cc3)no2)s1 [Compound A-25] |
| 39.8 nM | Cc1ccc(-c2nc(-c3ccc(S(=O)(=O)N[C@@H](Cc4ccccc4)C(=O)O)cc3)no2)cc1 [Compound A-30] |
| 27.9 nM | O=C(O)[C@@H](Cc1ccccc1)NS(=O)(=O)c1ccc(-c2noc(-c3ccccc3)n2)cc1 [Compound A-29] |
| 39.7 nM | C[C@@H](NS(=O)(=O)c1ccc(-c2noc(-c3ccc(F)cc3)n2)s1)C(=O)O [Compound B-7] |
| 224 nM | O=C(O)CNS(=O)(=O)c1ccc(-c2noc(-c3ccc(F)cc3)n2)s1 [Compound B-14] |
| 4.63 nM | CCc1ccc(-c2nc(-c3ccc(S(=O)(=O)N[C@H](C)C(=O)O)cc3)no2)cc1 [Compound A-47] |
| 26.4 nM | CC(C)[C@@H](NS(=O)(=O)c1ccc(-c2noc(-c3ccccc3)n2)cc1)C(=O)O [Compound A-16] |

| IC50 | SMILES |
| --- | --- |
| 38 nM | Cc1cccc(-c2nc(-c3ccc(S(=O)(=O)N[C@H](Cc4ccccc4)C(=O)O)cc3)no2)c1 [Compound A-36] |
| 80.7 nM | O=C(O)[C@H](Cc1ccccc1)NS(=O)(=O)c1ccc(-c2noc(-c3ccc(Cl)c(Cl)c3)n2)cc1 [Compound A-39] |
| 5.39 nM | CCc1ccc(-c2nc(-c3ccc(S(=O)(=O)N[C@@H](C(=O)O)C(C)C)s3)no2)cc1 [Compound B-2] |
| 5.75 nM | CC(C)[C@@H](NS(=O)(=O)c1ccc(-c2noc(-c3ccc(Cl)cc3)n2)cc1)C(=O)O [Compound A-2] |
| 12.6 nM | C[C@@H](NS(=O)(=O)c1ccc(-c2noc(-c3ccc([N+](=O)[O-])cc3)n2)cc1)C(=O)O [Compound A-50] |
| 506 nM | COc1ccc(-c2nc(-c3ccc(S(=O)(=O)N[C@@H](Cc4ccccc4)C(=O)O)cc3)no2)cc1OC [Compound A-38] |
| 124 nM | Cc1ccc(-c2nc(-c3ccc(S(=O)(=O)N[C@@H](CC(C)C)C(=O)O)cc3)no2)cc1 [Compound A-67] |
| 196 nM | O=C(O)CNS(=O)(=O)c1ccc(-c2noc(-c3cccs3)n2)cc1 [Compound A-62] |
| 1.23 nM | CCCCc1ccc(-c2nc(-c3ccc(S(=O)(=O)N[C@@H](C(=O)O)C(C)C)cc3)no2)cc1 [Compound A-4] |
| 15.7 nM | CCCc1ccc(-c2nc(-c3ccc(S(=O)(=O)NCC(=O)O)cc3)no2)cc1 [Compound A-61] |
| 223 nM | O=C(O)[C@@H](Cc1ccccc1)NS(=O)(=O)c1ccc(-c2noc(-c3ccc(F)cc3)n2)s1 [Compound B-3] |
| 13.1 nM | N#Cc1ccc(-c2nc(-c3ccc(S(=O)(=O)N[C@H](Cc4ccccc4)C(=O)O)cc3)no2)cc1 [Compound A-34] |
| 47 nM | O=C(O)[C@@H](Cc1ccccc1)NS(=O)(=O)c1ccc(-c2noc(-c3ccco3)n2)cc1 [Compound A-42] |
| 37.6 nM | CC(C)C[C@@H](NS(=O)(=O)c1ccc(-c2noc(-c3ccc(Cl)cc3)n2)cc1)C(=O)O [Compound A-66] |
| 0.883 nM | CCCc1ccc(-c2nc(-c3ccc(S(=O)(=O)NC(C(=O)O)C(C)C)cc3)no2)cc1 (stereo not drawn) [Compound A-20] |
| 2.88 nM | Cc1ccc(-c2nc(-c3ccc(S(=O)(=O)N[C@@H](C(=O)O)C(C)C)cc3)no2)s1 [Compound A-24] |
| 12.4 nM | C[C@@H](NS(=O)(=O)c1ccc(-c2noc(-c3ccc(Cl)s3)n2)cc1)C(=O)O [Compound A-54] |
| 70.5 nM | C[C@@H](NS(=O)(=O)c1ccc(-c2noc(-c3ccco3)n2)cc1)C(=O)O [Compound A-56] |
| 458 nM | Cc1ccc(-c2nc(-c3ccc(S(=O)(=O)N[C@@H](C)C(=O)O)cc3)no2)cc1 [Compound A-46] |
| 114 nM | Cc1ccc(-c2nc(-c3ccc(S(=O)(=O)NC(C(=O)O)C(C)C)cc3)no2)cc1 (stereo not drawn) [Compound A-19] |
| 39 nM | Cc1ccc(-c2nc(-c3ccc(S(=O)(=O)NCC(=O)O)s3)no2)cc1 [Compound B-15] |

| IC50 | SMILES |
| --- | --- |
| 171 nM | O=C(O)[C@@H](Cc1ccccc1)NS(=O)(=O)c1ccc(-c2noc(-c3cccnc3)n2)cc1 [Compound A-43] |
| 20 nM | CCc1ccc(-c2nc(-c3ccc(S(=O)(=O)NCC(=O)O)cc3)no2)cc1 [Compound A-59] |
| 28 nM | C[C@@H](NS(=O)(=O)c1ccc(-c2noc(-c3cccs3)n2)s1)C(=O)O [Compound B-9] |
| 12.6 nM | CCc1ccc(-c2nc(-c3ccc(S(=O)(=O)NCC(=O)O)s3)no2)cc1 [Compound B-16] |
| 8.74 nM | Cc1ccc(-c2nc(-c3ccc(S(=O)(=O)N[C@H](C)C(=O)O)cc3)no2)s1 [Compound A-53] |
| 9.17 nM | Cc1ccc(-c2nc(-c3ccc(S(=O)(=O)N[C@H](C)C(=O)O)cc3)no2)cc1 [Compound A-10] |
| 31 nM | C[C@@H](NS(=O)(=O)c1ccc(-c2noc(-c3ccc(F)cc3)n2)cc1)C(=O)O [Compound A-45] |
| 60.3 nM | CC(C)[C@H](NS(=O)(=O)c1ccc(-c2noc(-c3ccc(Cl)s3)n2)cc1)C(=O)O [Compound A-27] |
| 50.3 nM | C[C@@H](NS(=O)(=O)c1ccc(-c2noc(-c3ccsc3)n2)cc1)C(=O)O [Compound A-55] |
| 4.08 nM | CCc1ccc(-c2nc(-c3ccc(S(=O)(=O)N[C@H](Cc4c[nH]c5ccccc45)C(=O)O)s3)no2)cc1 [Compound B-13] |
| 51.6 nM | Cc1ccc(-c2nc(-c3ccc(S(=O)(=O)NCC(=O)O)cc3)no2)cc1 [Compound A-12] |
| 26.5 nM | Cc1ccc(-c2nc(-c3ccc(S(=O)(=O)N[C@H](Cc4ccccc4)C(=O)O)s3)no2)s1 [Compound B-6] |
| 339 nM | CC(C)[C@H](NS(=O)(=O)c1ccc(-c2noc(-c3cccs3)n2)cc1)C(=O)O [Compound A-23] |
| 14.4 nM | O=C(O)[C@@H](Cc1ccccc1)NS(=O)(=O)c1ccc(-c2noc(-c3ccc(C4CCCCC4)cc3)n2)cc1 [Compound A-35] |
| 614 nM | C[C@@H](NS(=O)(=O)c1ccc(-c2noc(-c3ccccn3)n2)s1)C(=O)O [Compound B-11] |
| 36.8 nM | C[C@@H](NS(=O)(=O)c1ccc(-c2noc(-c3cccs3)n2)cc1)C(=O)O [Compound A-52] |
| 45 nM | C[C@@H](NS(=O)(=O)c1ccc(-c2noc(-c3ccccc3)n2)cc1)C(=O)O [Compound A-44] |
| 5.59 nM | Cc1ccc(-c2nc(-c3ccc(S(=O)(=O)N[C@H](Cc4ccccc4)C(=O)O)cc3)no2)s1 [Compound A-41] |
| 1.24 nM | CCc1ccc(-c2nc(-c3ccc(S(=O)(=O)N[C@@H](C(=O)O)C(C)C)cc3)no2)cc1 [Compound A-3] |
| 2.9 nM | CCc1ccc(-c2nc(-c3ccc(S(=O)(=O)N[C@H](C)C(=O)O)s3)no2)cc1 [Compound B-8] |
| 1.66 nM | CCCc1ccc(-c2nc(-c3ccc(S(=O)(=O)N[C@H](Cc4c[nH]c5ccccc45)C(=O)O)cc3)no2)cc1 [Compound A-65] |
